# In a melting point compilation (Tetko et al.; mined from patent text by program, amines drawn as free bases though some values may be those of a salt):
row,melting point,SMILES
1,189 °C,CN1N=C(c2ccc(Cl)cc2)CC1=O
2,197 °C,Cn1ncnc1COc1nn2c(-c3ccc(F)cc3)nncc2c1C(C)(C)C
3,164 to 165 °C,Cc1cc(Cn2c(=S)sc3ccccc32)cc(C)c1O
4,90 to 91 °C,Cc1cc(O)c(S(=O)(=O)CC(C)C)c(=O)o1
5,147 °C,O=C(O)C(Cc1ccccc1)C(=O)NOCc1ccccc1 (stereo unspecified)
6,202 °C,CCOc1cc2c(cc1S(=O)(=O)NC(=S)NC)C(CNC(=O)c1cc(Cl)ccc1OC)CCO2 (stereo unspecified)
7,145 to 147 °C,Cc1ncc(C(=O)Nc2ccc(-n3nc(C(F)(F)F)cc3C3CC3)cc2)c(C)n1
8,250 °C,Oc1ccc(C(NC(c2ccccc2)c2ccccc2)P(O)O)c(O)c1 (stereo unspecified)
9,103 °C,C[Si](C)(C)O[Si]1(O[Si](C)(C)C)O[Si](O[Si](C)(C)C)(O[Si](C)(C)C)O[Si](O[Si](C)(C)C)(O[Si](C)(C)C)O1
10,206 to 207 °C,O=c1c2cccc3ncc(c(=O)n1CCCCNS(=O)(=O)C(F)(F)F)n32
11,90 to 95 °C,COc1nc(NC(=O)NS(=O)(=O)Cc2ccccc2C(C)OC(C)=O)nc(OC)n1 (stereo unspecified)
12,275 to 277 °C,CN1CC[C@@H](c2c(O)cc(O)c3c(=O)cc(-c4ccc([N+](=O)[O-])cc4)oc23)[C@@H]1CO
13,149 to 151 °C,O=S(=O)(Nc1cc(Br)nc(Br)c1)c1cccc(C(F)(F)F)c1
14,155 °C,CCCOC(=O)C1=C(N)NC(C)=C(C(=O)OC)C1c1cccc([N+](=O)[O-])c1 (stereo unspecified)
15,192 to 197 °C,CC(CS)C(=O)N1CC(Oc2ccc(CC3Nc4cc(Cl)c(S(N)(=O)=O)cc4S(=O)(=O)N3C)cc2)CC1C(=O)O (stereo unspecified)
16,148 to 158 °C,Cc1cc(C)c(CP(Cc2c(C)cc(C)cc2C)Cc2c(C)cc(C)cc2C)c(C)c1
17,190 to 192 °C,Cc1cccc(C(=O)c2cc3c(ccc4ccccc43)oc2=O)c1
18,157 to 158 °C,"CN1C(=O)CCC2(C)c3ccc(Sc4ccncc4)cc3CCC12 (single isomer, unassigned; (+))"
19,135 to 139 °C,CC1CCN(CCOc2ccc(NC(=O)CC(=O)c3ccc(-c4ccccc4)cc3)cc2Cl)CC1
20,148 to 150 °C,NCC1CCc2[nH]c3ccc(OC(F)(F)F)cc3c2C1 (stereo unspecified)
21,121 to 123 °C,Nc1ccc(C(O)(C(F)(F)F)C(F)(F)F)cc1S
22,> 255 °C,Cc1ccc2[nH]c3c(c2c1)C(=O)CCC3
23,194 to 195 °C,O=C(Oc1cccc(OC(=O)c2cc(O)c(O)c(O)c2)c1)c1cc(O)c(O)c(O)c1
24,143 to 145 °C,N#Cc1cccc2c(-c3ccccc3)coc12

row,melting point,SMILES
1,75 °C,COC[C@@H]1CCCN1S(=O)(=O)c1ccc(Cl)c(COc2cccc3c(-n4cccn4)cc(C)nc23)c1Cl
2,213 to 215 °C,CC(C)(C)CC(C)(C)NC(=O)c1cc(C(C)(C)C)c(OC(=O)c2cc(C(C)(C)C)c(O)c(C(C)(C)C)c2)c(C(C)(C)C)c1
3,228 to 230 °C,O=C1CCC(N2Cc3c(OCc4ccc(CN5CC6CCC(C5)O6)cc4)cccc3C2=O)C(=O)N1 (stereo unspecified)
4,186 to 187 °C,COc1c(C=O)c2cc(Cl)c(Cl)cc2n1C1CC(O)C(CO)O1 (stereo unspecified)
5,59 to 61 °C,Cn1c(Oc2ccc(N=C=S)cc2)nc2ccccc21
6,152 to 155 °C,COc1ccc(OC)c(C(=O)C=Cc2cccc(C(=O)O)c2)c1
7,208 to 210 °C,CCC(=O)c1ncc(Nc2cc(C)[nH]n2)nc1Nc1ccc(F)cc1
8,152 °C,Cc1cc(-n2nc(C#N)cc2-c2ccc(S(C)(=O)=O)cc2)ccc1Br
9,226 to 230 °C,CCC(C)C(C)C(=O)Nc1ccc2c(C)cn3c(=O)c(C(=O)NCCN4CCN(C(c5ccccc5)c5ccccc5)CC4)cnc3c2c1 (stereo unspecified)
10,170 to 175 °C,CC(C)(C)c1cc(N(C(=O)Cc2ccccc2C(=O)O)c2ccccc2)cc(C(C)(C)C)c1O
11,74 to 76 °C,CCOC(=O)c1c(C)c[nH]c1C
12,137 to 139 °C,Cc1ccc(S(=O)(=O)N(C(=O)OC(C)(C)C)[C@@H]2CCCC[C@H]2N)cc1
13,> 250 °C,Cn1c2c(cnc3c([N+](=O)[O-])cccc32)c(=O)n1C(=O)OC(C)(C)C
14,179 to 180 °C,CCOC(CC)c1ccc(Cl)c2nc3n(c12)CCCN3c1cnc(N(C)C)cc1C (stereo unspecified)
15,207 to 208 °C,CC(C)(C)c1cc(CCC2NC(=O)NC2=O)cc(C(C)(C)C)c1O (stereo unspecified)
16,112 to 113 °C,CCNC(=O)n1oc2ccccc2c1=O
17,105 °C,C=CCc1c(OCC(O)COc2ccc3c(=O)cc(C(=O)O)oc3c2CC=C)ccc(C(C)=O)c1O (stereo unspecified)
18,202 to 204 °C,CCC12OC1C(=O)C(Nc1ncnc3cc(OC)c(OC)cc13)=CC2=O (stereo unspecified)
19,124 to 128 °C,Nc1cc(F)ccc1C(=O)CCCN1CCN(c2cc3ccccc3cn2)CC1
20,164 to 166 °C,CC(=O)NC[C@H]1CN(c2ccc(N3CCC4(CCO4)CC3)c(F)c2)C(=O)O1
21,119 to 120 °C,CN1Cc2cc(Br)cnc2N(C)C1=O
22,92 to 93 °C,CCCc1nc(C(C)(C)O)c(C(=O)OCC)n1Cc1ccc(-c2ccccc2C#N)cc1
23,139 °C,Cn1cnc2cc(C(c3ccccc3)n3ccnc3)ccc21 (stereo unspecified)
24,109 to 110 °C,CCOC(=O)CC1c2ccccc2C(=O)N1c1ccccc1 (stereo unspecified)

row,melting point,SMILES
1,99 to 101 °C,CCCOc1cc(OCCC)c2c(C)c(CCCl)c(=O)oc2c1
2,154 to 155 °C,c1ccc2c(c1)CCc1c(CN3CCN(c4ccc5ccccc5n4)CC3)n[nH]c1-2
3,130 to 131 °C,COc1ccc(-n2nc3c(cc2=O)CCCc2sc(CO)cc2-3)cc1
4,120 °C,COC(=O)c1ccc(OC)c(NC(=N)c2ccc(F)cc2)c1
5,93 °C,CCCn1ncnc1COc1nn2c(-c3ccccc3F)nncc2c1C(C)(C)C
6,132 to 133 °C,CCOC(=O)c1c(CN(CC)CC)nc2ccc(Cl)cc2c1-c1ccc(Cl)cc1
7,147 to 149 °C,CC1(CCn2nc(-c3ccncc3)oc2=O)Cn2cc([N+](=O)[O-])nc2O1 (stereo unspecified)
8,> 250 °C,O=c1[nH]c2ccc3ccc(-n4cccc4CN4CCN(Cc5ccccc5)CC4)cc3c2[nH]c1=O
9,135 to 138 °C,O=C(O)CC(Cc1ccccc1[N+](=O)[O-])C(=O)O (stereo unspecified)
10,126 °C,NCC(O)c1nn(Cc2ccccc2)c2ccccc12 (stereo unspecified)
11,165 to 168 °C,Clc1nc(-n2ccnc2)c2ccccc2c1-c1ccccc1
12,105 to 107 °C,Cc1ccsc1C(=O)Cc1ccc(Cl)cc1[N+](=O)[O-]
13,140 to 142 °C,CC(C)(C)OC(=O)C[C@@H]1C[C@@H](COc2ccc(-c3ccc(C#N)c(Cl)c3)cc2)NC1=O
14,114 to 116 °C,N#Cc1c(OCC(F)(F)F)nc(CCO)nc1N1CCc2ccccc2CC1
15,76 to 77 °C,CC(=NOCCO)c1ccc(N(C)S(=O)(=O)c2ccccc2)cc1
16,120 to 122 °C,Cc1cc(C)c(C(C#N)C=O)c(C)c1 (stereo unspecified)
17,203 to 206 °C,CN(C)N=Cc1cc2c(cn1)[nH]c1ccccc12
18,120 to 125 °C,CSC1=NC=CC(NN)(SC)N1 (stereo unspecified)
19,124 to 127 °C,O=C(NC/C=C\COc1cc(CN2CCCC2)ccn1)c1ccc[nH]1
20,173 to 174 °C,Cc1nc2sc3ccccc3n2c1C(C)O (stereo unspecified)
21,250 °C,Cc1ccc(NC(=O)c2c(C)cccc2NC(=O)OC(C)(C)C)cc1
22,70 to 72 °C,COc1ccc(C=NO)cc1C
23,62 to 65 °C,O=CCCCOC(c1ccccc1)(c1ccccc1)c1ccccc1
24,79 to 80 °C,CCC(=O)OCc1c2ccccc2cc2ccccc12

row,melting point,SMILES
1,68 to 69.5 °C,CC(=O)NCC(CCl)OC(C)=O (stereo unspecified)
2,243 to 244 °C,O=C1N(Cc2ccc(O)cc2)c2ccccc2C12COc1cc3c(cc12)OCCO3 (stereo unspecified)
3,52 to 55 °C,CCCCCCCCCCCCCCCCCCOCC(COC1CCCCO1)NC(C)=O (stereo unspecified)
4,182 to 184 °C,CNc1ccc2[nH]c3cc(-c4ccccc4Cl)c4c(c3c2c1)C(=O)NC4=O
5,138 to 140 °C,NC(=O)c1cn(C(CO)CCc2cccc3ccccc23)cn1 (stereo unspecified)
6,97 to 99 °C,O[C@@H]1CN(Cc2ccccc2)C[C@H]1Sc1ccccc1 (relative stereo)
7,64 to 67 °C,CC[C@H](C)CNC(=O)[C@@H](C[C@H](O)[C@H](CC1CCCCC1)NC(=O)OC(C)(C)C)C(C)(C)O
8,216 to 218 °C,COC(=O)c1cc2c([nH]c3ccc(Br)cc32)s1
9,171 to 173 °C,CCOc1ccccc1-c1ccc2c(c1)C=C(C(=O)Nc1ccc(CN(C)C3CCOCC3)cc1)CCS2(=O)=O
10,144 to 148 °C,O=S(=O)(c1ccccc1)c1ccc(OCc2ccccc2)c(O)c1
11,184 to 186 °C,N#Cc1cc(N2CCC(c3cc(Cl)cc(Cl)c3)(C(F)(F)F)C2)ccc1F (stereo unspecified)
12,66 to 69 °C,COc1nc(C)c(C(C)=O)cc1NC(=O)N1CCN(c2cc(C)cc(C)c2)CC1
13,> 290 °C,Cn1c(=O)c(-c2c(Cl)cccc2Cl)cc2cnc(S(C)(=O)=O)nc21
14,> 300 °C,COc1ccc(-c2[nH]nc3c2C(=O)c2c(NC(=O)CN4CCN(CCN)CC4)cccc2-3)cc1
15,208 to 209 °C,OC[C@@H]1O[C@H](n2c(NC3CC3)nc3c(Cl)c(Cl)c(Cl)cc32)[C@@H](O)[C@H]1O
16,114 to 116 °C,CCCc1c(OCCCS(=O)(=O)c2ccc(C(=O)OC)cn2)ccc(C(C)=O)c1O
17,83 °C,C=C(C)C(=O)OCCCCCCOc1ccc(C(=O)O)cc1
18,95 to 101 °C,CN1CCN(c2ccc(Nc3ncc4ccc(-c5ccccc5OCC#N)n4n3)cc2)CC1
19,215 to 218 °C,N#Cc1[nH]c(Br)c(Br)c1Br
20,43 °C,CCOC(C)O[C@@H](C(=O)OC(=O)[C@H](OC(C)OCC)[C@@H](NC(=O)OC(C)(C)C)c1ccccc1)[C@@H](NC(=O)OC(C)(C)C)c1ccccc1 (stereo partly specified)
21,130 to 131 °C,CC(=O)NCc1ccc2c(C#N)cn(C3CCN(CCc4ccc(F)cc4)CC3)c2c1
22,206 to 207 °C,Cn1c(Br)nc2c1C(=O)N1CCN=C1N2Cc1ccc(Cl)cc1
23,155 to 156 °C,CC#CC(C)(C)NC(=O)C(COC)Oc1ccc2ccncc2c1 (stereo unspecified)
24,228 to 234 °C,O=C(Nc1ccc(C(=O)N2CCc3cn[nH]c3-c3ccccc32)cn1)c1ccccc1-c1ccccc1
